± gives the uncertainty stated by the source.
Assay: xn = mol fraction of the nth substance listed
Conditions: 101 kPa

CCCC[n+]1ccccc1.N#C[N-]C#N + CC1COC(=O)O1
Conditions | electrical conductivity [S/m] | viscosity [mPa·s]
288.15 K, x1 = 0.1003 | 0.537 ± 0.01 | 4.857 ± 0.074
293.15 K, x1 = 0.4997 | 1.69 ± 0.017 | 14.49 ± 0.14
298.15 K, x1 = 0.3005 | 1.76 ± 0.018 | 6.995 ± 0.086
298.15 K, x1 = 0.7011 | 2.05 ± 0.021 | 19.85 ± 0.19
298.15 K, x1 = 0.7885 | 2.28 ± 0.023 | 24.95 ± 0.23
303.15 K, x1 = 0.3005 | 1.98 ± 0.02 | 6.097 ± 0.08
303.15 K, x1 = 0.6002 | 2.338 ± 0.023 | 13.28 ± 0.13
308.15 K, x1 = 0.1003 | 1.38 ± 0.014 | 3.024 ± 0.066
308.15 K, x1 = 0.3005 | 2.227 ± 0.022 | 5.372 ± 0.076
308.15 K, x1 = 0.7011 | 2.55 ± 0.026 | 14.09 ± 0.14
313.15 K, x1 = 0.1003 | 1.6 ± 0.016 | 2.75 ± 0.065
313.15 K, x1 = 0.3005 | 2.49 ± 0.025 | 4.766 ± 0.073
318.15 K, x1 = 0.1003 | 1.77 ± 0.018 | 2.498 ± 0.064
318.15 K, x1 = 0.7011 | 3.09 ± 0.031 | 10.47 ± 0.11
323.15 K, x1 = 0.197 | 2.44 ± 0.025 | 3.04 ± 0.066
323.15 K, x1 = 0.3005 | 3.038 ± 0.03 | 3.842 ± 0.069
323.15 K, x1 = 0.7011 | 3.432 ± 0.034 | 9.16 ± 0.1
323.15 K, x1 = 0.7885 | 3.732 ± 0.037 | 10.85 ± 0.11
328.15 K, x1 = 0.6002 | 3.724 ± 0.037 | 6.707 ± 0.084
328.15 K, x1 = 1 | 3.2 ± 0.032 | 12.59 ± 0.13
333.15 K, x1 = 0.197 | 2.94 ± 0.029 | 2.58 ± 0.064
333.15 K, x1 = 0.3005 | 3.66 ± 0.037 | 3.172 ± 0.066
333.15 K, x1 = 0.7011 | 4.16 ± 0.042 | 7.185 ± 0.087
333.15 K, x1 = 1 | 3.49 ± 0.035 | 11.08 ± 0.11
338.15 K, x1 = 0.197 | 3.17 ± 0.032 | 2.394 ± 0.063
343.15 K, x1 = 0.7011 | 4.98 ± 0.05 | 5.796 ± 0.078
343.15 K, x1 = 0.9008 | 5.122 ± 0.051 | 7.641 ± 0.09
348.15 K, x1 = 0.3005 | 4.732 ± 0.047 | 2.474 ± 0.064
348.15 K, x1 = 0.7011 | 5.416 ± 0.054 | 5.253 ± 0.076
353.15 K, x1 = 0.4003 | 5.33 ± 0.053 | 2.965 ± 0.065
